According to paper PMC9262865 (Chembiochem, 2022):

What was measured:
[1] = target: tyrosine phenol-lyase (wild type TPL) (Citrobacter freundii, UniProt P31013); assay: absorbance titration at […] nm; assay type: binding
[2] = target: T1, tyrosine phenol-lyase (M379A TPL) (Citrobacter freundii, UniProt P31013, M379A); assay: X-ray crystal structure; assay type: binding
[3] = target: T1, tyrosine phenol-lyase (M379A TPL); assay: LDH-coupled steady-state kinetics of purified enzyme; assay type: biochemical

Compound | Kd [1] [mM] | Kd [2] [mM] | M379A TPL / k cat/K M, M^-1 s^-1 [3]
CSCC[C@H](N)C(=O)O [L-methionine] | 0.79 | 1.74 | –
N[C@@H](Cc1ccc(O)cc1)C(=O)O [compound 1, L-tyrosine] | – | – | 148 M^-1 s^-1 (kcat/KM)
N[C@@H](Cc1ccc(O)c(F)c1)C(=O)O [compound 3, 3-F-L-tyrosine] | – | – | 774 M^-1 s^-1 (kcat/KM)
